# Experimental data taken from patent US10653131B2 (priority 2013, dated 2020).
# Tested on: spores of Bacillus thuringiensis
smiles,measurement,value
O=[N+]([O-])O [nitric acid],"destruction, inactivation of spores","ensured destruction, inactivation"
